In data set [1] the target is T1, proton pump (H+/K+-ATPase) (Sus scrofa, UniProt P19156).
T1 construct: Gastric vesicles isolated from pig stomach were prepared according to the document; from tissue; host or cells: pig stomach (gastric vesicles)
As to the kind of experiment: Inhibitory activity on proton pump (H+/K+-ATPase), malachite green assay. The settings on record: pig gastric vesicles, pH 6.5. Format: biochemical. As for the experimental part: The proton pump (H+/K+-ATPase) inhibitory activity of the prepared compound was measured as follows. Gastric vesicles isolated from pig stomach were prepared according to the document (see Methods Mol Biol. 2016; 1377:19-27). The protein contents of the gastric vesicles were quantified with a Bicinchoninic Acid (BCA) kit (Sigma Aldrich, BCA1). To each well of a 96-well plate, 70 μl of 50 mM Tris-HEPES buffer (pH 6.5) containing 125 ng of vesicles, DMSO or a substance for each concentration (final DMSO concentration of 1%), 5 mM MgCl2, and 10 mM KCl was added and pre-incubated at 37° C. for 30 minutes. Then, 10 μl of 2 mM ATP was added to each well, followed by enzymatic reaction at 37° C. for 40 minutes. The reaction was stopped by adding 20 μl of malachite green reagent (Sigma Aldrich, MAK307) and the resulting mixture was allowed to stand at room temperature for 30 minutes. By measuring the absorbance at 620 nm using a Microplate Reader (Biotek, Synergy H4), an amount of inorganic phosphorus released from ATP degradation was measured and the enzyme activity was measured. The absorbance of the enzyme-reacted sample without adding KCl was measured, and the measurement value was subtracted from all the above measurements. Assuming that the group treated with 1% DMSO (DMSO control group) was 100% H^+/K^+-ATPase enzyme activity, and that the group without KCl (KCl control group) was 0% H^+/K^+-ATPase enzyme activity, % inhibition was calculated as in the following Equation 1:
% inhibition=[1−(ODtreatment group−ODKCl control group)/(ODDMSO control group−ODKCl control group))]*100. [Equation 1]
IC50 was obtained by nonlinear regression analysis of GraphPad Prism7 program using % inhibition values for each concentration, and results thereof are shown in Table 2 below.

Data set [2] can be described thus: Pharmacokinetic test in rats. Format: in vivo. Particulars: blood, rat; for bioavailability: oral 10 mg/kg vs intravenous 5 mg/kg, read-out: F (%) bioavailability; for AUC(0-inf): single oral dose 10 mg/kg. As for the experimental part:
(§1) The Example compound was dissolved in PBS containing 5% DMSO and 20% hydroxypropyl (HP) beta cyclodextrin, and administered intravenously to rats at a dose of 5 mg/kg, and the Example compound was suspended in distilled water containing 0.5% methylcellulose, and orally administered to rats at a dose of 10 mg/kg. The Example compound was dissolved in PBS containing 5% DMSO and 20% hydroxypropyl (HP) beta cyclodextrin, and administered intravenously to beagle dogs at a dose of 5 mg/kg, and the Example compound was suspended in distilled water containing 0.5% methylcellulose, and orally administered to beagle dogs at a dose of 10 mg/kg. Blood samples were collected at scheduled time points after the single intravenous and oral administration of the Example compound to normal rats and beagle dogs. Acetonitrile containing an internal standard material was added to the collected blood sample for protein precipitation. The sample extracted through protein precipitation was centrifuged, and then the supernatant was injected into LC-MS/MS to be subjected to quantitative analysis of the blood concentration of the Example compound. The AUC for each administration route was calculated based on the blood concentration-time profile obtained as a result above, and based on this, the bioavailability (F) upon oral administration was calculated.

Data set [3] can be described thus: Pharmacokinetic test in beagle dogs. The class given is in vivo. Particulars: blood, beagle dog; for bioavailability: oral 10 mg/kg vs intravenous 5 mg/kg, read-out: F (%) bioavailability; for AUC(0-inf): single oral dose 10 mg/kg. As for the experimental part:
as §1

Data set [4] is described as follows: Intragastric distribution test in rats. The class given is in vivo. Particulars: rat, oral 4 mg/kg, 1, 6, 12 and 24 hours. On the procedure:
After oral administration of the Example compound in normal rats, the intragastric distribution by time was measured as follows. The prepared compound was dissolved in distilled water containing 0.5% methylcellulose to 0.2 mg/mL, and then orally administered at a dosage of 4 mg/kg. Rats were sacrificed at 1 hour, 6 hours, 12 hours, and 24 hours after administration. Then, blood was exsanguinated through the heart and perfused with physiological saline, the gastric tissue was enucleated, weighed, and stored at −80° C. until the point of analysis. PBS buffer was added so that the ratio of gastric tissue weight to PBS buffer was 1:4, and the compound in gastric tissue was extracted using a homogenizer. The supernatant of the extract was taken and was subjected to protein precipitation using acetonitrile, and then an amount of the Example compound was measured using LC-MS/MS.

Here are results for two compounds from patent US20230192650A1, “NOVEL ACID SECRETION INHIBITOR AND USE THEREOF” (Ildong Pharmaceutical Co., Ltd., priority 2020, published 2023).

The structures appear in SMILES notation.

The IC50 is the concentration at which inhibition is half-maximal. The bioavailability is dose-corrected exposure relative to a reference, in per cent. The term AUC(0-inf) denotes total exposure, with the tail of the curve extrapolated. Higher therefore signals more exposure.

T1 sequence (P19156 2-1034 limits assumed): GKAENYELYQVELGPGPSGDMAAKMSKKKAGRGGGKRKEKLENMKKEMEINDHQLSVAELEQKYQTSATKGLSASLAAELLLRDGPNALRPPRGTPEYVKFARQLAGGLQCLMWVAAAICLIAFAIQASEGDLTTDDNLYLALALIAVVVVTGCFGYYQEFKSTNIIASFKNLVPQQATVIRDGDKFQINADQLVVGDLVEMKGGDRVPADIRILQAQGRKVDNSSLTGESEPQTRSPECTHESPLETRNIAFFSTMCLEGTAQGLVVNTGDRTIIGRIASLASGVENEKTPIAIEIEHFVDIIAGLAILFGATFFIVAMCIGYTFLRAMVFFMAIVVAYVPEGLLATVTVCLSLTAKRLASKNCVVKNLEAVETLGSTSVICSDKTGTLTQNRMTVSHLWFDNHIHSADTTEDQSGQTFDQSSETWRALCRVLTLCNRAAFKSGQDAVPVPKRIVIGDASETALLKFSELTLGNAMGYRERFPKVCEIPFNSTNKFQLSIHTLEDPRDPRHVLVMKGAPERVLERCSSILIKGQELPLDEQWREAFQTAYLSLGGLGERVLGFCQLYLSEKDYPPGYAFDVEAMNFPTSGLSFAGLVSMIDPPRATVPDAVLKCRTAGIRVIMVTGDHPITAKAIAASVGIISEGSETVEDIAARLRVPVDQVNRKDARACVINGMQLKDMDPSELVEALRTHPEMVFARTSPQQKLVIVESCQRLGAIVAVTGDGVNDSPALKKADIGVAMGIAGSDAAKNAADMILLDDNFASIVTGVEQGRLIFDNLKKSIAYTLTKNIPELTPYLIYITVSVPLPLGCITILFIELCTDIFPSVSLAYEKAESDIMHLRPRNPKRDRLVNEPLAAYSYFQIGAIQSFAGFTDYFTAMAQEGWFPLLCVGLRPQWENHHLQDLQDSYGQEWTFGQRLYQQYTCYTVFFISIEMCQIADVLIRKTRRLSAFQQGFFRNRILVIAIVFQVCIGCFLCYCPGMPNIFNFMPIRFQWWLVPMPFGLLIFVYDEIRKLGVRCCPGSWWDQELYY
T1 sequence (P18434 whole entry partner): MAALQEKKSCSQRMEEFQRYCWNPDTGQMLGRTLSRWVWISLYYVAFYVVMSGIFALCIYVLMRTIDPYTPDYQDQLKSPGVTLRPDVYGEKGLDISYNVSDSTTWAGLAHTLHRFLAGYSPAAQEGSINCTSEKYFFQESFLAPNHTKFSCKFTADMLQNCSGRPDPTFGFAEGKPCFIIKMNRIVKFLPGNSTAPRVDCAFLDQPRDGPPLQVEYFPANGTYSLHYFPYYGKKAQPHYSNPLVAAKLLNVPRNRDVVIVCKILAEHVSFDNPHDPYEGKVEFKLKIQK

`CNCc1cn(S(=O)(=O)c2ccc(C)nc2)c(-c2ccc(F)cc2F)c1OC` [Example 3, 1-(5-(2,4-Difluorophenyl)-4-methoxy-1-((6-methylpyridin-3-yl)sulfonyl)-1H-pyrrol-3-yl)-N-methylmethanamine]: the IC50 in data set [1] is at most 300 nM. In data set [2], the bioavailability is 27.3% and the AUC(0-inf) came out at 275 ng·h/mL. In data set [3], the bioavailability was 83.8% and the AUC(0-inf) worked out at 14500 ng·h/mL.

In the case of `CNCc1cn(S(=O)(=O)c2ccc(OC)nc2)c(-c2ccccc2F)c1OC` [Example 1, 1-(5-(2-Fluorophenyl)-4-methoxy-1-((6-methoxypyridin-3-yl)sulfonyl)-1H-pyrrol-3-yl)-N-methylmethanamine], the “concentration in the stomach versus in vitro H+/K+ ATPase IC50” value in data set [4] is recorded as “exceeded ICH of the in vitro H^+/K^+ ATPase inhibition assay at all time points”. The IC50 in data set [1] was at most 300 nM. Moreover, in data set [2], the bioavailability amounted to 22% and the AUC(0-inf) came to 253 ng·h/mL. In data set [3], the bioavailability was found to be 71.7% and the AUC(0-inf) worked out at 10200 ng·h/mL.
